Results from patent US20220023216A1, “INSTANTLY SOLUBLE PARTICLE AND METHOD FOR PRODUCING THE SAME” (RICOH COMPANY, LTD., priority 2019, published 2022).
In brackets after ≈: the same amount, converted by molar mass.

Legend:
Assay type in all cases: physicochemical
[1] = Solubility of the poorly water-soluble (pharmaceutical) compound, Table 1; details: poorly-water-soluble compound (pharmaceutical compound) itself
[2] = Dissolution test of Test Example 3 (ibuprofen, physiological saline); details: physiological saline 100 mL, 25 degrees, 50 rpm
Excerpt: Then, an amount of the pharmaceutical agent dissolved over time was quantified through liquid chromatography (detector: UV/Vis detector).

[3] = Dissolution test of Test Example 1 (erlotinib, physiological saline); details: physiological saline 100 mL, 25 degrees Celsius, 50 rpm
Experimental: (§1) An active pharmaceutical ingredient of erlotinib (1.6 mg) and the particle 9 (16 mg) obtained in Example 9 were each added to a physiological saline solution (0.9 w/v %) (100 mL) as a solvent, and were dissolved for 30 minutes under the following conditions: a temperature of the solution: 25 degrees Celsius; and a stirring rate: 50 rpm. Then, an amount of the pharmaceutical agent dissolved over time was quantified through liquid chromatography (detector: UV/Vis detector).

[4] = Dissolution test of Test Example 2 (imatinib, water); details: water 100 mL, 25 degrees Celsius, 50 rpm
Experimental: as §1, with “imatinib (7.35” for “erlotinib (1.6”, “10 (73.5” for “9 (16”, “10” for “9”, “water” for “a physiological saline solution (0.9 w/v %)”, “mL),” for “mL) as a solvent,”

For `CC(C)Cc1ccc(C(C)C(=O)O)cc1` (stereo not drawn) [Ibuprofen, ibuprofen], the solubility [1] was 20 µg/mL (≈ 97 µM), the Dissolution amount ([2]; 2 min) was “Not detected” and the Dissolution amount ([2]; 5 min) was “Not detected”. The Dissolution amount ([2]; 15 min) was 5.4 mg/mL and the Dissolution amount ([2]; 30 min) was 9.7 mg/mL.

In the case of `C#Cc1cccc(Nc2ncnc3cc(OCCOC)c(OCCOC)cc23)c1` [Erlotinib, erlotinib], the Dissolution amount ([3]; 1 min) is reported as “Not detected”, the Dissolution amount ([3]; 3 min) is reported as 0.8 mg/mL and the Dissolution amount ([3]; 5 min) is reported as 1 mg/mL. The Dissolution amount ([3]; 15 min) was 1.1 mg/mL and the Dissolution amount ([3]; 30 min) was 2 mg/mL.

`Cc1ccc(NC(=O)c2ccc(CN3CCN(C)CC3)cc2)cc1Nc1nccc(-c2cccnc2)n1` [Imatinib, imatinib] showed a Dissolution amount ([4]; 1 min) of 9.7 mg/mL, a Dissolution amount ([4]; 3 min) of 13.4 mg/mL and a Dissolution amount ([4]; 5 min) of 18 mg/mL. For the same compound, the Dissolution amount ([4]; 15 min) was 19.8 mg/mL and the Dissolution amount ([4]; 30 min) was 13.7 mg/mL.
